The values below come from patent US5314913A, “4- or 5-(substituted sulfonyl)methyl-3(2H)-furanones” (American Home Products Corporation, priority 1992, dated 1994).

The first experiment has as its system blood glucose levels in diabetic (db/db) mice. The experiment is described as follows: Blood glucose lowering in diabetic db/db mice. It is filed as in vivo, db/db (C57BL/KsJ) mouse. To be noted: 100 (mg/kg), p.o. by gavage, 4 doses, difference between mean percent change of vehicle and drug treated group. On the procedure:
The animals are obese, glucose intolerant and have fasting hyperglycemia which is sometimes accompanied by a paradoxical hyperinsulinemia.
On the morning of Day 1, 12-15 mice [male db/db (C57BLKsJ), Jackson Laboratories, 2 to 7 months of age and body weight 35 to 60 g] were fasted for 4 hours, weighed and a baseline blood sample was collected from the tail-tip of each mouse without anesthesia, placed directly into a fluoride-containing tube, mixed and maintained on ice. Food was then returned to the mice. The plasma was separated and levels of glucose in plasma determined by the Abbott VP Analyzer. Because of the variable plasma glucose levels of the db/db mice, the mice were randomly assigned into 3-5 groups (4-5 mice per group) of equivalent mean plasma glucose levels:
On the afternoon of Days 1, 2 and 3 the vehicle, control or test drugs were administered (p.o.) to the ad libitum fed mice. The positive control, ciglitazone [(±)-5-[4-[(1-methylcyclohexyl]benzyl]-thiazolidine-2,4-dione] see Fujita et al. Diabetes, 32, 804 (1983), was given by gavage at a dose of 100 mg/kg/day. The test compounds were given by gavage at a dose of 100 mg/kg/day. The fourth and final dose was administered on the morning of day 4, after the mice had been fasted for 18 h. A blood sample was collected immediately preceeding the last dose, followed by samples collected at 90 and 120 min after drug administration. Insulin is immediately administered to each mouse after the 120 min sample. Serial blood samples were collected at 45 and 120 min after administration. The plasma was separated and the levels of glucose in plasma determined by the Abbot VP analyzer.
Analysis of variance followed by Dunnett's multiple comparison (one-sided) was used to estimate the degree of statistical significance of the difference between the vehicle control group and the individual drug-treated groups. A drug was considered active, at the specific dose administered, if the difference of the plasma glucose level has a p<0.10.
The actual difference between the mean percent change of blood glucose levels of the vehicle and the drug treated group is reported in Table 1.
For “N-[[(4,5-Dihydro-5,5-dimethyl-4-oxo-3-furanyl)methyl]sulfonyl]phenylacetamide [Example 5]”, the “Blood Glucose Levels % Change from Vehicle” value is recorded as -23%.

Still in this experiment, the particulars now being: Mus musculus, po, p.o. by gavage, 4 doses, difference between mean percent change of vehicle and drug treated group, read-out: Blood Glucose Levels % Change from Vehicle.
In the case of `CC1(C)OC=C(CS(=O)(=O)c2ccc([N+](=O)[O-])cc2)C1=O` [Example 4, 2,2-Dimethyl-4-[(4-nitrophenyl)sulfonyl]methyl-3(2H)-furanone], the change in vivo at 100 mg/kg is -30%. As for `CC1(C)OC(C(C)(C)S(=O)(=O)c2ccccc2)=CC1=O` [Example 8, 2,2-Dimethyl-5-[1-methyl-1-(phenylsulfonyl)ethyl]-3(2H)-furanone], the change in vivo at 100 mg/kg was -42%. On the same count and under the same terms, next, `CC1(C)OC=C(CS(=O)(=O)c2cccc3ccccc23)C1=O` [Example 2, 2,2-Dimethyl-4-[(1-naphthalenyl)sulfonyl]methyl-3(2H)-furanone]: -21%; `CC1(COc2ccc(CC3SC(=O)NC3=O)cc2)CCCCC1` (racemic) [Ciglitazaone, (±)-5-[4-[(1-methylcyclohexyl]benzyl]-thiazolidine-2,4-dione, reference compound]: -50 to -24%. As to `COc1ccccc1S(=O)(=O)CC1=COC(C)(C)C1=O` [Example 3, 4-[(2-Methoxyphenyl)sulfonyl]methyl-2,2-dimethyl-3(2H)-furanone], the change in vivo at 100 mg/kg was -21%. As to `O=C1C(CS(=O)(=O)c2ccccc2)=COC12CCCCC2` [Example 6], the change in vivo at 100 mg/kg was -25%. For the compound `CC1(c2ccccc2)OC(CS(=O)(=O)c2ccccc2)=CC1=O` (stereo not drawn) [Example 10, 2-Methyl-2-phenyl-5-(phenylsulfonyl)methyl-3(2H)-furanone], the change in vivo at 100 mg/kg was -19%. On the same count and under the same terms, next, `CC1(C)OC(CS(=O)(=O)c2ccccc2)=CC1=O` [Example 7, 2,2-Dimethyl-5-(phenylsulfonyl)methyl-3(2H)-furanone]: -38%; `CC1(C)OC=C(CS(=O)(=O)c2ccccc2)C1=O` [Example 1, 2,2-Dimethyl-4-(phenylsulfonyl)methyl-3(2H)-furanone]: -30%; `CC1(C)OC(C2(S(=O)(=O)c3ccccc3)CCCC2)=CC1=O` [Example 9, 2,2-Dimethyl-5-[1-(phenylsulfonyl)-1-cyclopentyl]-3(2H)-furanone]: -25%.

The next experiment deals with cholesterol absorption. The experiment is described as follows: Cholesterol absorption in normal rats (oral [14C] cholesterol, serum radioactivity). Conditions: 100 mg/kg, serum radioactivity at 6 hr. It counts as in vivo. On the procedure:
Cholesterol absorption was measured in normal rats following simultaneous oral doses of the test compounds and radioactive cholesterol according to the method of Cayen and Dvornik except that [^14 C] cholesterol in propylene glycol and olive oil (vehicle for test compound) were used. Serum radioactivity was measured at 6 hr [Cayen, M. N. and Dvornik, D., J. Lipid Res., 20, 162 (1979)].
For the compound `CC1(C)OC=C(CS(=O)(=O)c2ccccc2)C1=O` [Example 1, 2,2-Dimethyl-4-(phenylsulfonyl)methyl-3(2H)-furanone], the “decrease in cholesterol absorption” value is recorded as 79%.

Staying with this experiment, now noted: 250 mg/kg, serum radioactivity at 6 hr.
As for `CC1(c2ccccc2)OC(CS(=O)(=O)c2ccccc2)=CC1=O` (stereo not drawn) [Example 10, 2-Methyl-2-phenyl-5-(phenylsulfonyl)methyl-3(2H)-furanone], the “decrease in cholesterol absorption” value is recorded as 35%. For the compound `CC1(C)OC(CS(=O)(=O)c2ccccc2)=CC1=O` [Example 7, 2,2-Dimethyl-5-(phenylsulfonyl)methyl-3(2H)-furanone], the “decrease in cholesterol absorption” value is given as 58%.

Another experiment relates to gastric mucosal lesions produced by ethanol. The experiment is described as follows: Ethanol induced cytotoxicity in rats (gastric mucosal lesions). It is filed as in vivo, Male Sprague-Dawley rats. To be noted: Rattus norvegicus; 10 mg/kg, oral, 1 hour prior to ethanol; read-out: % Inhibition (of lesion formation). On the procedure: The purpose of this assay is to evaluate the effectiveness of the compounds of the present invention in preventing the formation of gastric mucosal lesions produced by ethanol. The assay is based on A. Robert, et al: Gastroenterology, 77: 433-443, 1979.
Male Sprague-Dawley rats weighing between 120-150 grams were fasted for 24 hours prior to the experiment (water ad libitum). At least two hours before dosing, the animals were placed in individual cages with wire grid bottoms and denied access to water.
Ethanol was administered orally at 1 mL per animal. The compounds of the present invention were dissolved in water or suspended in water with 0.5% carboxymethylcullulose and administered orally at a dose based on an appropriate standard giving ED50 to ED75 response of cytoprotective activity.
The rats were randomly divided into groups of equal number, ordinarily 10 to a group. The rats were weighed and the individual weights were recorded. Exactly 1 hour prior to the administration of ethanol, the screening group was treated with the compounds of the present invention, and the control group with the vehicle. One hour after administering the ethanol the animals were sacrificed by cervical dislocation. The stomachs were removed, cut along the greater curvature and cleansed of all debris with tap water. The stomachs were set aside and kept moist with saline until the lesions were scored.
Macroscopic lesions on the gastric mucosa were numerically graded. The final grade assigned a stomach was the sum of all the grades.
Streaks longer than 6 mm are graded in multiples of 2 mm.
The degree of cytotoxicity occurring in each group is represented as the mean± S.E.M.
The mean of each treatment group was compared to the control group and expressed as the % inhibition of lesion formation.
For the compound `CC1(c2ccc(Cl)cc2)OC=C(CS(=O)(=O)C(C)(C)C)C1=O` (stereo not drawn) [Example 19, 4-[(1,1-Dimethylethyl)sulfonyl]methyl-2-(4-chlorophenyl)-2-methyl-3(2H)-furanone], the inhibition in vivo at 10 mg/kg amounted to 45%. For `CC1(c2ccc(F)cc2)OC=C(CS(=O)(=O)C(C)(C)C)C1=O` (stereo not drawn) [Example 18, 4-[(1,1-Dimethylethyl)sulfonyl]methyl-2-(4-fluorophenyl)-2-methyl-3(2H)-furanone], the inhibition in vivo at 10 mg/kg stood at 80%.

The experiment is the same for the next values; noted with them: Rattus norvegicus; 25 mg/kg, oral, 1 hour prior to ethanol; read-out: % Inhibition (of lesion formation).
For `CC1(c2ccccc2)OC=C(CS(=O)(=O)C(C)(C)C)C1=O` (stereo not drawn) [Example 20, 4-[(1,1-Dimethylethyl)sulfonyl]methyl-2-methyl-2-phenyl-3(2H)-furanone], the inhibition in vivo at 25 mg/kg stood at 76%. As for `CC1(C)OC=C(CS(=O)(=O)c2ccc(C(C)(C)C)cc2)C1=O` [Example 16, 2,2-Dimethyl-4-[[4-(1,1-dimethylethyl)phenyl]sulfonyl]methyl-3(2H)-furanone], the inhibition in vivo at 25 mg/kg turned out to be 30%. For the compound `CC1(C)OC=C(CS(=O)(=O)C(C)(C)C)C1=O` [Example 17, 4-[(1,1-Dimethylethyl)sulfonyl]methyl-2,2-dimethyl-3(2H)-furanone], the inhibition in vivo at 25 mg/kg was 87%. On to `CC1(C)OC(CS(=O)(=O)c2ccc(Cl)cc2)=CC1=O` [Example 11, 5-[(4-Chlorophenyl)sulfonyl]methyl-2,2-dimethyl-3(2H)-furanone], for which the inhibition in vivo at 25 mg/kg was found to be 44%. The same measure, in the same setting: in the case of `CC1(C)OC=C(CS(=O)(=O)c2ccc(F)cc2)C1=O` [Example 15, 4-[(4-Fluorophenyl)sulfonyl]methyl-2,2-dimethyl-3(2H)-furanone] it was 42%.

For the compound `CC1(C)OC(CS(C)(=O)=O)=CC1=O` [Example 13, 2,2-Dimethyl-5-(methylsulfonyl)methyl-3(2H)-furanone], the inhibition in vivo at 25 mg/kg came to 54%. Regarding `CC1(C)OC(CS(=O)(=O)c2ccc(F)cc2)=CC1=O` [Example 12, 5-[(4-Fluorophenyl)sulfonyl]methyl-2,2-dimethyl-3(2H)-furanone], the inhibition in vivo at 25 mg/kg turned out to be 6%. Regarding `CC1(C)OC(CS(=O)(=O)c2ccc(C(C)(C)C)cc2)=CC1=O` [Example 14, 2,2-Dimethyl-5-[[4-(1,1-dimethylethyl)phenyl]sulfonyl]methyl-3(2H)-furanone], the inhibition in vivo at 25 mg/kg was 43%.
